According to the supplement of paper PMC5908809:

What was measured:
[1] = tested on: normal NK cells expanded with K562-aAPC; experiment: percent inhibition of viability; higher = more inhibition; details: 72 h, IL-2 2.5 ng/mL
Method: (§1)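 Drug sensitivity and resistance testing on K562-aAPC-expanded normal NK cells: 5 concentrations (10-fold steps over a 10,000-fold range), 72 h at 37 °C, viability by CellTiter-Glo normalised to DMSO and benzethonium chloride controls; DSS from the fitted curve.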

DERL-7 (IL-2 2.5 ng/mL) [2] = experiment: as above; details: 72 h
IMC-1 (IL-2 20 ng/mL) [3] = experiment: as above; details: 72 h
KAI3 (IL-2 2.5 ng/mL) [4] = experiment: as above; details: 72 h
KHYG-1 (IL-2 2.5 ng/mL) [5] = experiment: as above; details: 72 h
NK-92 (IL-2 2.5 ng/mL) [6] = experiment: as above; details: 72 h
NK-YS (IL-2 2.5 ng/mL) [7] = experiment: as above; details: 72 h
NKL (IL-2 2.5 ng/mL) [8] = experiment: as above; details: 72 h
SNK-6 (IL-2 2.5 ng/mL) [9] = experiment: as above; details: 72 h
YT (IL-2 2.5 ng/mL) [10] = experiment: as above; details: 72 h
[11] = tested on: normal primary NK cells, pool 1 (3 donors) (IL-2 2.5 ng/mL); experiment: as above; details: 72 h
[12] = tested on: normal primary NK cells, pool 1 (3 donors), resting (IL-2 0 ng/mL); experiment: as above; details: 72 h
[13] = tested on: normal primary NK cells, pool 2 (3 donors) (IL-2 2.5 ng/mL); experiment: as above; details: 72 h
[14] = tested on: normal primary NK cells, pool 3 (3 donors) (IL-2 2.5 ng/mL); experiment: as above; details: 72 h
[15] = tested on: normal NK cells expanded with K562-aAPC; experiment: drug sensitivity score (DSS) (DSS units); higher = more sensitive; extreme values may be limits of the assay; details: 72 h; IL-2 2.5 ng/mL
Method: as §1

DERL-7 (IL-2 2.5 ng/mL) [16] = experiment: as above; details: 72 h
IMC-1 (IL-2 20 ng/mL) [17] = experiment: as above; details: 72 h
KAI3 (IL-2 2.5 ng/mL) [18] = experiment: as above; details: 72 h
KHYG-1 (IL-2 2.5 ng/mL) [19] = experiment: as above; details: 72 h
NK-92 (IL-2 2.5 ng/mL) [20] = experiment: as above; details: 72 h
NK-YS (IL-2 2.5 ng/mL) [21] = experiment: as above; details: 72 h
NKL (IL-2 2.5 ng/mL) [22] = experiment: as above; details: 72 h
SNK-6 (IL-2 2.5 ng/mL) [23] = experiment: as above; details: 72 h
YT (IL-2 2.5 ng/mL) [24] = experiment: as above; details: 72 h
[25] = tested on: normal primary NK cells, pool 1 (3 donors) (IL-2 2.5 ng/mL); experiment: as above; details: 72 h
[26] = tested on: normal primary NK cells, pool 1 (3 donors), resting (IL-2 0 ng/mL); experiment: as above; details: 72 h
[27] = tested on: normal primary NK cells, pool 2 (3 donors) (IL-2 2.5 ng/mL); experiment: as above; details: 72 h
[28] = tested on: normal primary NK cells, pool 3 (3 donors) (IL-2 2.5 ng/mL); experiment: as above; details: 72 h

O=C(c1ccc(F)c(F)c1Nc1ccc(I)cc1F)N1CC(O)([C@@H]2CCCCN2)C1 [Cobimetinib] (max concentration tested 1000 nM)
percent inhibition of viability [%]
Details | 0.1 nM | 1 nM | 10 nM | 100 nM | 1000 nM
DERL-7 (IL-2 2.5 ng/mL) [2] | -2.43 | 3.83 | 18.1 | 32.9 | 46.5
IMC-1 (IL-2 20 ng/mL) [3] | -6.91 | -4.02 | -2.84 | -2.89 | 11.3
KAI3 (IL-2 2.5 ng/mL) [4] | 9.38 | 9.29 | 9.13 | 11.7 | 32.1
KHYG-1 (IL-2 2.5 ng/mL) [5] | 0.28 | -3.46 | 0.44 | 23.2 | 61.9
NK-92 (IL-2 2.5 ng/mL) [6] | -10.5 | -14.3 | -27.4 | -34.9 | 9.96
NK-YS (IL-2 2.5 ng/mL) [7] | -1.72 | -3.33 | -3.31 | 6.41 | 24.2
NKL (IL-2 2.5 ng/mL) [8] | -12.4 | -11.4 | 17.8 | 45 | 73.1
SNK-6 (IL-2 2.5 ng/mL) [9] | -10.3 | -0.09 | -17.7 | -8.92 | -10.9
YT (IL-2 2.5 ng/mL) [10] | 0.33 | -2.92 | -2.04 | -0.43 | 15.7
[1] | -7.24 | -7.72 | -6.49 | 1.17 | 21.4
[11] | -3.52 | 2.49 | 17.3 | 18.4 | 24
[12] | 7.7 | 3.18 | 22 | 14 | 16.4
[13] | -3.62 | -9.92 | 3.68 | 12.4 | 19.9
[14] | -9.25 | -10.3 | -2.76 | -1.62 | 12.1

Details | drug sensitivity score
DERL-7 (IL-2 2.5 ng/mL) [16] | 7.96
IMC-1 (IL-2 20 ng/mL) [17] | 0
KAI3 (IL-2 2.5 ng/mL) [18] | 3.21
KHYG-1 (IL-2 2.5 ng/mL) [19] | 6.6
NK-92 (IL-2 2.5 ng/mL) [20] | 0
NK-YS (IL-2 2.5 ng/mL) [21] | 1.78
NKL (IL-2 2.5 ng/mL) [22] | 10.4
SNK-6 (IL-2 2.5 ng/mL) [23] | 0
YT (IL-2 2.5 ng/mL) [24] | 0.26
[15] | 0.83
[25] | 5.11
[26] | 2.92
[27] | 1.58
[28] | 0.02

COc1cc2c(NC3CCN(C(C)C)CC3)nc(C3CCCCC3)nc2cc1OCCCN1CCCC1 [UNC0638] (max concentration tested 10000 nM)
percent inhibition of viability [%]
Details | 1 nM | 10 nM | 100 nM | 1000 nM | 10000 nM
DERL-7 (IL-2 2.5 ng/mL) [2] | 2.53 | 3.85 | -3.65 | 12.8 | 101
IMC-1 (IL-2 20 ng/mL) [3] | -2.5 | -1.52 | 2.54 | 4.7 | 100
KAI3 (IL-2 2.5 ng/mL) [4] | -1.49 | 2.96 | 15.3 | 64.9 | 107
KHYG-1 (IL-2 2.5 ng/mL) [5] | 3.45 | -2.32 | 4.32 | 6.75 | 102
NK-92 (IL-2 2.5 ng/mL) [6] | 5.67 | 5.27 | 21.5 | 21.4 | 104
NK-YS (IL-2 2.5 ng/mL) [7] | -0.95 | -0.93 | 1.21 | 6.18 | 103
NKL (IL-2 2.5 ng/mL) [8] | -8.37 | -2.53 | -3.47 | 10 | 103
SNK-6 (IL-2 2.5 ng/mL) [9] | -6.73 | -2.24 | 11.7 | 23.5 | 101
YT (IL-2 2.5 ng/mL) [10] | -0.28 | -1.09 | 4.71 | 0.39 | 102
[1] | -0.44 | 0.89 | 0.9 | 3.67 | 100
[11] | 4.83 | -1.29 | 1.24 | -5.62 | 100
[12] | 7.27 | -7.21 | -5.23 | 10.6 | 100
[13] | -8.36 | -2.48 | -3.63 | 1.06 | 100
[14] | -4.55 | -0.2 | 2.47 | -3.99 | 100

Details | drug sensitivity score
DERL-7 (IL-2 2.5 ng/mL) [16] | 7.69
IMC-1 (IL-2 20 ng/mL) [17] | 6.26
KAI3 (IL-2 2.5 ng/mL) [18] | 14.4
KHYG-1 (IL-2 2.5 ng/mL) [19] | 6.72
NK-92 (IL-2 2.5 ng/mL) [20] | 8.98
NK-YS (IL-2 2.5 ng/mL) [21] | 6.67
NKL (IL-2 2.5 ng/mL) [22] | 7.29
SNK-6 (IL-2 2.5 ng/mL) [23] | 9.2
YT (IL-2 2.5 ng/mL) [24] | 5.79
[15] | 6.1
[25] | 5.15
[26] | 7.28
[27] | 5.75
[28] | 5.3
